Test results taken from patent publication US10603265B2, “Skin whitening peptide agents” (INSTITUT CURIE, priority 2014, dated 2020).
Several values for one entry are separate records, joined by “and”; a condition that tells them apart may be missing. Equal entries are not always repeated. Entries after “also recorded” stand apart in the source; their conditions may differ.

Legend:
[1] = molecular target: T1, interaction of human AP-1 with human KIF13A (Homo sapiens, UniProt Q9H1H9); test: AP-1 immunoprecipitation / KIF13A western blot, HeLa cell lysates incubated with peptides; assay type: biochemical; settings: 1 μg peptide, vs control without peptide
T1 construct: incubating independently g of each 12 peptides with HeLa cell lysates (non pigmented cells); endogenous in cells; host or cells: HeLa cell lysate
T1 sequence (Q9H1H9 whole entry): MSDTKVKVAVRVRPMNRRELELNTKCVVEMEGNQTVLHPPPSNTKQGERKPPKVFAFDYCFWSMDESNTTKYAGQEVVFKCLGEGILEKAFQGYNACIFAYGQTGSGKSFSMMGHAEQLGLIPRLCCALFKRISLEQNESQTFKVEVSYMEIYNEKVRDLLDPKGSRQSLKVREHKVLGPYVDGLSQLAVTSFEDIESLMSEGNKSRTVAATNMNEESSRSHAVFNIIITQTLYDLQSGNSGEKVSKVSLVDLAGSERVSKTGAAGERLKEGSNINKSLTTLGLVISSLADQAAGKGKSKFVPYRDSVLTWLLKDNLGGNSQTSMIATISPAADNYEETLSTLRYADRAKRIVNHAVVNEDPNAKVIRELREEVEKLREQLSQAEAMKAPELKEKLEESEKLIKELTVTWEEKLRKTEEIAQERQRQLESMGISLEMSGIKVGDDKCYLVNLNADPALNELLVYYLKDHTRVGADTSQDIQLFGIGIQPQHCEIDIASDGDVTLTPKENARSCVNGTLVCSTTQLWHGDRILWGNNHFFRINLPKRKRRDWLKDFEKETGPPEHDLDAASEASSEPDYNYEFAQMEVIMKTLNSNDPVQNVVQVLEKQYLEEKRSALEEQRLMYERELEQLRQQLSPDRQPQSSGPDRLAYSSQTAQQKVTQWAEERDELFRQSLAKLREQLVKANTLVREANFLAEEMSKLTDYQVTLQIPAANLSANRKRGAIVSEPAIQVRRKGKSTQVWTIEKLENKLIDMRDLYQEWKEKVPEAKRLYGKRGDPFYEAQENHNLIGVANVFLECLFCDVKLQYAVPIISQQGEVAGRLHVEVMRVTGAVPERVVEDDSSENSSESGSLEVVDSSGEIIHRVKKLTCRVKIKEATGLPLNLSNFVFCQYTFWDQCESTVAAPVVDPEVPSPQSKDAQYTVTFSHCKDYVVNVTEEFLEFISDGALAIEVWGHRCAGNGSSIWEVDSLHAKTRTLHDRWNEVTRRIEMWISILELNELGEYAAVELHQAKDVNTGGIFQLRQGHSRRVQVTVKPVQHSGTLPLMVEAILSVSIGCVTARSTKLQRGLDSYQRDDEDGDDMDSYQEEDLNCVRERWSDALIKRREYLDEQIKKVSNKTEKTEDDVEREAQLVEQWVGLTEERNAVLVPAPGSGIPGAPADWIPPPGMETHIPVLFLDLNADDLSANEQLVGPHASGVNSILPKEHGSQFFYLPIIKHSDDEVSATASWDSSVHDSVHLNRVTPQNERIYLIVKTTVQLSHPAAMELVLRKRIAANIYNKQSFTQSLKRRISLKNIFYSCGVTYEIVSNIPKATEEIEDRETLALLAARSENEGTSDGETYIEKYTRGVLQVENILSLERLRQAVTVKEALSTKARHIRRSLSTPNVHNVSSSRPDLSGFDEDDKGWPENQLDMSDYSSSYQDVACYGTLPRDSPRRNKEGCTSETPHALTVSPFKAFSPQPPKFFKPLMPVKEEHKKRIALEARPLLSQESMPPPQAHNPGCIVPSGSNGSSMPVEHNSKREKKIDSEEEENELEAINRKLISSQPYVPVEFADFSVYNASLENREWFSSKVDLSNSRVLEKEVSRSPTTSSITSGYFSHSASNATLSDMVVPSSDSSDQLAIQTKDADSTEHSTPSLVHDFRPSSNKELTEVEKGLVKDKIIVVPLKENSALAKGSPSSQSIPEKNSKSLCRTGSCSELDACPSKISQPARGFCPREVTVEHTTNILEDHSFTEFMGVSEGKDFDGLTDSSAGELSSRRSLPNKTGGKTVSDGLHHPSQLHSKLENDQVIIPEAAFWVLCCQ
Description: FIG. 1: γ-adaptin subunit of the human AP-1 complex was immunoprecipitated from HeLa cell lysates in presence or not of 1 μg of the indicated 11 amino acids peptides (peptides AI, QT, GN, EK, EL, WQ; NY, QF, LM, FF, LK and RI: SEQ ID NO: 17, 28, 20, 1, 25, 27, 22, 21, 24, 23, 19 and 26, respectively) for 2 h at 4° C. under rotation. […] Molecular weight in kDa.
(§1) Cells at 80% of confluency were washed in cold PBS and lysed on ice in lysis buffer (50 mM Tris, 150 mM NaCl, 0.1% Triton X-100, 10 mM EDTA, pH 7.2, and protease inhibitor cocktail, Roche). Lysates were incubated overnight with 1 μg of peptides. Lysates were first precleared using protein G agarose beads for 1 h at 4° C. under rotation. Supernatants were collected and incubated with protein G agarose beads with 1 μg mouse monoclonal IgG2b anti-CD9 for 1 h at 4° C. under rotation. Precleared supernatants were incubated with beads coated earlier with 1 μg mouse monoclonal IgG2b anti-γ-adaptin for 2 h at 4° C. under rotation. As negative control, 1 μg mouse monoclonal IgG2b anti-CD9 was used to immunoprecipitate the lysate.
After five washes in cold lysis buffer and three washes in PBS, immunoprecipitated proteins bound to the beads were incubated in sample buffer with reducing agent, boiled for 10 min at 95° C., and fractionated by SDS-PAGE using Nupage (3-8%) Tris-acetate gels (Invitrogen). […]

AP-1/KIF13A interaction = molecular target: T2, AP-1/KIF13A interaction (Homo sapiens, UniProt Q9H1H9); test: AP-1 immunoprecipitation / KIF13A western blot, MNT-1 melanocyte lysates incubated with peptides; assay type: biochemical; settings: MNT-1 melanocytic cell lysates, 1 μg peptide, KIF13A/AP-1 band intensity normalized to control
T2 construct: endogenous in cells; host or cells: MNT-1 (MNT1) human melanocytic cells
T2 sequence (Q9H1H9 whole entry): as above
Description: FIG. 2: γ-adaptin subunit of the human AP-1 complex was immunoprecipitated from melanocytes (MNT1) cell lysates in presence or not of 1 μg of the indicated peptides (peptides SS-5, EK-11 and QK-5: SEQ ID NO: 28, 1 and 16, respectively) for 2 h at 4° C. under rotation. […] EK-11 and SS-5 peptides were used as a positive and negative controls, respectively. Molecular weight in kDa.
FIG. 3: Intensity of the immunoprecipitated KIF13A and AP-1 bands shown in FIG. 2 were quantified using ImageJ. KIF13A intensity were divided by its corresponding AP-1 intensity and normalized to the control (lysates incubated without peptides, first lane).
as §1, with “lysate. […]” for “lysate.”

MNT-1 cells [2] = test: Melanin assay on MNT-1 cells; assay type: cell-based, human; settings: MNT1 melanocytes, 3 days, 10 μM peptide, OD 492 nm, normalized to H2O control
Description: FIG. 4: MNT1 melanocytes were cultured 3 days with 10 μM of QK-5 peptide (SEQ ID NO: 16) or H2O as a control. Melanin estimation was performed as previously described (Delevoye et al., J Cell Biol. 2009 Oct. 19; 187(2):247-64), and normalized to the control. QK-5 peptide incubation decreased the intracellular melanin content about 40±0.02%. Data are presented as mean±standard deviation. *; p value (two tailed)<0.05.
The skin whitening activity of the peptide may further be determined by measuring the melanin content of melanocytic cells such as MNT-1 cells, incubated with the peptide. For example, the assay may be carried out as follow: at day 1, 10^5 MNT-1 cells are seeded in 6-well plates; From day 2 to day 4, cells are grown in medium comprising 10 μM of peptides; at day 5, cells are disrupted by sonication in 50 mM Tris-HCl, pH 7.4, 2 mM EDTA, 150 mM NaCl, 1 mM dithiothreitol, and protease inhibitors. Pigment is pelleted at 20,000 g for 15 min at 4° C., rinsed once in ethanol/ether (1:1), and dissolved in 2 M NaOH/20% dimethylsulfoxide at 60° C.; Melanin content is measured as optical density at 492 nm.
At day 1, 10^5 cells were seeded in 6-well plates. From day 2 to day 4, cells were grown in medium containing 1 or 10 μg of peptides. Medium was changed every day. […] Melanin content was measured as optical density at 492 nm.

[3] = tested on: 3D human reconstructed pigmented epidermis; test: Melanin assay on reconstructed human pigmented epidermis; assay type: cell-based; settings: 10 days, 30 μM peptide, OD 492 nm, normalized to control
Description: FIG. 10: Melanin quantitation on 3D human reconstructed pigmented epidermis incubated 10 days with 30 μM of QA-3 peptides or AK-3 peptides. Synthetic epidermis were removed from their insert and dissolved in 400 μl of Solvable (Perkin Elmer) for 1 h at 100° C. Melanin quantification was performed on 200 μl by measuring the optical density at 492 nm. Melanin quantifications were normalized to the control. Both QA-3 and AK-3 peptides decreased about 22.5±13% or 21±10% the melanin production by synthetic skin epidermis. Data are presented as mean±standard deviation. *; p value (two tailed)<0.1.
Reconstructed human epidermal of phototype VI (Sterlab) were received at day 10 and incubated with the manufacturer's growth medium supplemented from day 11 to day 21 with 30 μg of peptides. As recommended, medium was changed every day. At day 21, the epidermis was separated from the insert, digested by incubation in 400 μl of Solvable (PerkinElmer) at 98° C. for 1 h. Melanin content was measured as optical density at 492 nm.

[4] = molecular target: T3, co-localization of KIF13A with AP-1 (Homo sapiens, UniProt Q9H1H9); test: Immunofluorescence colocalization of AP-1 with KIF13A in MNT-1 melanocytes; assay type: cell-based; settings: MNT1 melanocytes, 3 days, 10 μM peptide, vs H2O control
T3 construct: endogenous in cells; host or cells: MNT-1 (MNT1) human melanocytic cells
T3 sequence (Q9H1H9 whole entry): as above
Description: FIG. 5: MNT1 melanocytes were seeded on glass coverslips and cultured 3 days with 10 μM of QK-5 peptide (SEQ ID NO: 16) or H2O as a control. Cells were fixed in cold methanol and co-stained using a rabbit anti-human KIF13A and a mouse anti-human γ-adaptin as primary antibodies and goat anti-rabbit or mouse coupled to Alexa-488 or 546 (Molecular Probes). Coverslips were mounted in Dabco (Invitrogen) medium and images were acquired on an Eclipse 80i Upright Microscope (Nikon) and deconvoluted. Images are maximum-intensity z projections of up to 15 3D image stacks acquired using ImageJ software. Analysis was performed by quantifying the intensity of overlapping KIF13A and AP-1 pixels and by normalizing them to the control. QK-5 peptide incubation on melanocytes decreased about 84±7% the co-localization of KIF13A with AP-1. Data are presented as mean±standard deviation. ***; p value (two tailed)<0.001.
MNT-1 cells grown on coverslips were incubated for three days in medium containing 10 μg of peptides. Coverslips were rinsed in PBS, fixed in 100% cold methanol for 30 sec, followed by incubation in PBS and 1 mg/ml BSA. […]
Colocalization analysis was performed using ImageJ software. […] Then identical area inside cells were defined and analyzed for quantification.

MNT-1 cells [5] = test: Electron microscopy, grading of melanosome stages in MNT-1 cells; assay type: cell-based, human; settings: MNT1 melanocytes, 3 days, 10 μM peptide, vs H2O control
Description: FIG. 6: MNT1 melanocytes were seeded on glass coverslips and cultured 3 days with 10 μM of QK-5 peptide (SEQ ID NO: 16; bottom panel) or H2O (top panel) as a control. Then cells were rapidly washed in DMEM at room temperature and fixed for 90 min with a mixture of 2.5% glutaraldehyde in 0.1 M cacodylate buffer for 90 min at 4° C., post-fixed with 1% OsO4/1.5% potassium ferrocyanide 45 min at 4° C., dehydrated in ethanol and embedded in Epon resin. Ultrathin (60-70 nm) sections were observed under a CM120 electron microscope (FEI company, Eindoven), equipped with a KeenView camera (Soft Imaging System; SIS, Germany). […] Scale bar: 2 μm.
FIG. 7: Melanosome stages were quantified based on their morphologies on MNT1 melanocytes treated as in FIG. 6. Stages I and II correspond to early non-pigmented melanosomes, melanin pigmentation is initiated in stage III, whereas stage IV is a fully mature and pigmented melanosome. Stages were counted and plotted as percentage of their total number.
Control and peptide-treated MNT-1 cells grown on coverslips for 3 days were fixed with 2.5% glutaraldehyde in 0.1M cacodylate buffer, pH 7.2 post-fixed with 1% OsO4 supplemented with 1.5% Potassium ferrocyanure, dehydrated in ethanol, and embedded in epon. Ultrathin sections were prepared with an Ulltracut UCT ultramicrotome (Leica) and observed under a CM120 electron microscope (FEI company, Eindoven) after counter-staining with uranyl acetate and lead citrate.
Grading of melanosomes stages from I to IV, based on morphology and melanin content, were done independently by two authors. The table below presents the criteria of analyses.

| Substance | decrease of the interaction of AP-1 with KIF13A [1] | decrease of the AP-1/KIF13A interaction (AP-1/KIF13A interaction) | decrease of the intracellular melanin content (MNT-1 cells [2]) | decrease of melanin production / pigmentation of reconstructed epidermis [3] | decrease of the colocalization of KIF13A with AP-1 [4] | early melanosome Stages (I and II) (MNT-1 cells [5]) | number of Stage III melanosomes (MNT-1 cells [5]) | number of Stage IV (fully mature pigmented) melanosomes (MNT-1 cells [5]) |
| --- | --- | --- | --- | --- | --- | --- | --- | --- |
| EPLNNLQVAVK (listed as Homo sapiens) [EK-11] | about 52.6±7% | 57.5±8% | – | – | – | – | – | – |
| AVK [AK-3] | – | – | 22±8% and ~21.3±8% | 21±10% | – | – | – | – |
| QVAVK (listed as Homo sapiens) [QK-5] | – | 56.1±6% | – | – | about 84±7% | without affecting the early Stages (I and II) | increased their number of Stage III; also recorded: increased the number of less mature and pigmented stages III | decreased their number of Stage IV melanosomes; also recorded: fewer dark-pigmented granules; also recorded: decreased the number of stage IV melanosomes |
